In article PMC11582070, “Template-assisted covalent modification underlies activity of covalent molecular glues” (Nature Chemical Biology, 2023):

Legend:
DCAF16 [1] = molecular target: T1, DCAF16 (Homo sapiens, UniProt O60885+Q9NXF7); experiment: intact protein MS ([…] adduct alone, […] with BRD4BD2; none with C58S); TR-FRET; type: binding
T1 construct: full length, in complex with DDB1ΔB; with BRD4 BD2 (template), DDB1ΔB

DCAF16 [2] = molecular target: T1, DCAF16; experiment: intact protein MS; TR-FRET; type: binding

Row | Compound | intact protein MS (8% adduct alone, 50% with BRD4BD2; none with C58S); TR-FRET (DCAF16 [1]) | intact protein MS; TR-FRET (DCAF16 [2])
1 | Cc1sc2c(c1C)C(c1ccc(/C=C/C=O)cc1)=N[C@@H](CC(=O)OC(C)(C)C)c1nnc(C)n1-2 [compound 2, TMX1] | By intact mass spectrometry, the DCAF16 C58S mutant completely eliminated DCAF16–TMX1 adduct formation | 
2 | C=CC(=O)Nc1ccc(C2=N[C@@H](CC(=O)OC(C)(C)C)c3nnc(C)n3-c3sc(C)c(C)c32)cc1 [compound 3, MMH1] |  | DCAF16 intact mass spectrometry experiments on MMH1 and MMH2 and found similar template-assisted covalent modifications
